# Laboratory results from patent US20260355182A1, “ISOQUINOLINE DERIVATIVE, SYNTHESIS METHOD THEREFOR, AND USE THEREOF” (Harbin Gloria Pharmaceuticals Co., Ltd., priority 2023, published 2026).
# Read-outs that look alike come from different tables or passages of the source.
# Key:
# db/db mice [1] = experiment: Hypoglycemic effect in diabetic model db/db mice, intraperitoneal; assay type: in vivo; settings: 4 hours
# Description: Gene knockout db/db mice are a classic model of hyperglycemia and obesity. Under normal feeding conditions, mice aged 3 months or older developed hyperglycemia and obesity. After the mice were provided with only drinking water (fasted) for 6 hours, blood was collected from the tail of the mice to measure blood glucose values. Subsequently, different drugs, including saline (control), liraglutide at 0.6 mg/Kg, low-concentration T6 (T6 low, 0.1 mg/Kg), and high-concentration T6 (T6 high, 0.5 mg/Kg), were injected intraperitoneally. 4 hours later, blood was collected from the tail of the mice to measure the blood glucose levels. Each group consisted of 6 mice. Blood glucose levels before administration (Vbefore) and after administration (Vafter) were obtained for each mouse. The effect of the drug on blood glucose (%) was calculated as follows:
# (Vbefore−Vafter)×100/Vbefore.
# db/db mice [2] = experiment: Long-term hypoglycemic and weight-loss effects in db/db mice, drinking water; assay type: in vivo; settings: drinking water 7 days
# Description: The hypoglycemic effect of the novel isoquinoline derivatives via intraperitoneal injection lasted no more than 6 hours. To determine the long-term hypoglycemic effect of T6, T6 was added to drinking water and administered to mice continuously for one week.
# After 7 days of treatment, changes in glycated hemoglobin (HbA1c) level, insulin level in mouse blood, and body weight, were measured.
# Pgk1 = target: T1, Pgk1 (Homo sapiens, UniProt P00558); experiment: T6 binding affinity with Pgk1 by SPR; settings: steady-state affinity model
# T1 sequence (P00558 1-417): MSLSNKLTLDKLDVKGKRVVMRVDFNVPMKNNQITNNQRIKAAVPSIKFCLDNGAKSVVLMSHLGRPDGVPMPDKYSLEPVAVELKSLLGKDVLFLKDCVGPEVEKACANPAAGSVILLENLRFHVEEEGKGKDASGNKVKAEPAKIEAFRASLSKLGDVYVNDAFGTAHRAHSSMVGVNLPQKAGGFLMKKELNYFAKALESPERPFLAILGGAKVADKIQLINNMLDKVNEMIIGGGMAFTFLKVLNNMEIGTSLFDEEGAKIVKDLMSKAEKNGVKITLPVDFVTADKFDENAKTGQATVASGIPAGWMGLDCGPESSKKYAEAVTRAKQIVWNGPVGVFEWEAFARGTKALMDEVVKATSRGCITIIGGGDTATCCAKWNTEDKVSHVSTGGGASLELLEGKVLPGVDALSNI
# Excerpt: Surface plasmon resonance (SPR) was used to measure the interaction between the small molecule T6 and Pgk1. Equilibrium binding responses at increasing T6 concentrations were fitted using a steady-state affinity model. In FIG. 9, diamonds represent the measured response units (RU), and the black curve indicates the fitted binding isotherm. […] The vertical line marks the calculated KD value.
# primary mouse neurons = experiment: Cellular status and glucose metabolism-related gene expression in primary mouse neurons; assay type: cell-based; settings: normoxic, 72 h, T6 10 PM (so in the source)
# Excerpt: In FIG. 10, A) representative bright-field images show the cellular status of primary neurons after treatment. […] The analyzed genes included G6PD, HK2, LDHA, PDK1, PGK1, and SLC2A1/GLUT1. […] TZ treatment produced a similar but generally more moderate metabolic gene-response profile, including increased LDHA, PDK1, and SLC2A1/GLUT1 expression. […] Error bars indicate variation among measurements. […] The results support the use of T6 or related compounds as agents capable of regulating neuronal metabolic status and glucose metabolism-associated pathways.
# SKN cells (Pgk1 shRNA) = experiment: Mitochondrial respiration in SKN cells with Pgk1 shRNA (Seahorse); assay type: cell-based
# Description: SKN cells were transduced with Pgk1 shRNA to reduce endogenous Pgk1 expression and were subsequently treated with vehicle control or compound T6. […] GAPDH was used as a loading control; B) mitochondrial respiration was assessed by Seahorse extracellular flux analysis and is expressed as oxygen consumption rate (OCR; pmol/min/10^4 cells). Oligomycin, FCCP, and rotenone plus antimycin were sequentially added to evaluate basal respiration, ATP-linked respiration, maximal respiratory capacity, and non-mitochondrial respiration. […] In contrast, Pgk1 knockdown reduced mitochondrial respiratory activity and diminished the respiration-enhancing effect of T6. […] Data are presented as mean±SD, with individual points representing replicate measurements. Statistical significance is indicated as **P<0.001; ns, not significant. […] The data support Pgk1 as a functional cellular target mediating the metabolic activity of T6.
# db/db mice [3] = experiment: Chronic treatment assay, HbA1c in db/db mice (ELISA); assay type: in vivo; settings: drinking water 2 weeks, particularly T6 1.5 mg/kg, vs untreated control
# Description: The db/db mice were used to evaluate the glucose-lowering activity of compound T6 in comparison with reference metabolic agents (TZ 0.5 mg/Kg, liraglutide 0.6 mg/Kg, T6 0.5 mg/Kg). In FIG. 15, A) for the acute glucose-response assay, drugs were administered to non-fasted db/db mice. Immediately after drug administration (s. c.), mice were deprived of food and water, and blood glucose levels were measured from tail blood samples 2 h later. The relative percentage change in blood glucose was calculated by comparing glucose levels before and after treatment in the same animal. […] HbA1c levels were then measured using a glycated hemoglobin A1c enzyme-linked immunosorbent assay, also referred to as a mouse HbA1c ELISA assay. […] Data are presented as mean±error bars, with individual circles representing individual animals. Statistical significance is indicated as P<0.001 (**) and P<0.0001 (***).
smiles,measurement,setting,value
Nc1nc(N2CCN(C(=O)[C@H]3CCCO3)CC2)cc2cc3c(cc12)OCC3 [Compound T6],Hypoglycemic effect (low concentration),db/db mice [1]; 0.1 mg/kg i.p.,significant hypoglycemic effects
same,Hypoglycemic effect (high concentration),db/db mice [1]; 0.5 mg/kg i.p.,significant hypoglycemic effects
same,Glycated hemoglobin (HbA1c) level,"db/db mice [2]; metformin 350 mg/kg, terazosin 0.3 mg/kg, T6 1.5 mg/kg",decrease in glycated hemoglobin (HbA1c) level
same,Long-term hypoglycemic effect versus terazosin and metformin,db/db mice [2]; long-term oral administration,better hypoglycemic effect than that of terazosin and metformin
same,Estimated Rmax,Pgk1,7.799 RU
same,Kd,Pgk1; read-out: KD (approximately),~22.4 µM
same,Kd,Pgk1; read-out: KD (fitted dissociation constant),22.4 µM
same,Relative mRNA expression of G6PD,primary mouse neurons; control = 1.0,increased
same,Neuronal cellular morphology/status,primary mouse neurons; TZ 10 μM,detectable changes in neuronal cellular morphology/status
same,Relative mRNA expression of HK2,"primary mouse neurons; TZ 10 μM, control = 1.0",not increased
same,Relative mRNA expression of LDHA,"primary mouse neurons; TZ 10 μM, control = 1.0",increased
same,Relative mRNA expression of PDK1,"primary mouse neurons; TZ 10 μM, control = 1.0",increased
same,Relative mRNA expression of PGK1,"primary mouse neurons; TZ 10 μM, control = 1.0",only modestly changed
same,Relative mRNA expression of SLC2A1/GLUT1,"primary mouse neurons; TZ 10 μM, control = 1.0",increased
same,"Basal respiration and maximal respiration (OCR), Pgk1 shRNA cells",SKN cells (Pgk1 shRNA); Pgk1 shRNA-expressing SKN cells,no significant increase
same,"Basal respiration and maximal respiration (OCR), control cells",SKN cells (Pgk1 shRNA); control SKN cells,significantly increased both basal respiration and maximal respiration
same,HbA1c level,db/db mice [3],reduced HbA1c levels
